One assay has as its system MDA-MB-436 w/o2 cells. Description: Cytotoxic action on MDA-MB-436 w/o2 cells that acquired resistance to conventional BRD4 degraders (WST-8, 96 hr). Format: cell-based, human. The method, then: The cytotoxic action of the compound of the present invention against cancer cells that acquired resistance to conventional BRD4 protein degradation inducing agents was evaluated in vitro. In this experiment, ARV-771 (Proc Natl Acad Sci USA. volume 113, pages 7124-7129 (28 Jun. 2016)) and MZ1 (ACS Chem Biol. Volume 10, pages 1770-1777 (21 Aug. 2015)), in which a ligand for VHL and BRD4 protein inhibitor are linked, were used as a conventional BRD4 protein degradation inducing agent serving as a comparison control. Human breast cancer MDA-MB-436 cells and MDA-MB-436 cells that acquired resistance to conventional BRD4 protein degradation inducing agents (MDA-MB-436 w/o2 cells) were suspended in 10% FBS/RPMI1640, seeded in a 96 well plate and cultured at 5% CO2, 37° C. overnight. A test compound dissolved in DMSO was diluted with 10% FBS/RPMI1640 and added and the cells were further cultured for 96 hr. After culturing, the viable cell number was measured using a cell number measurement WST-8 kit (Kishida Chemical Co., Ltd.). As a control, the measurement was performed under conditions free of the test compound. The cytotoxic activity of the compound of the present invention against each cell is shown in IC50 value in Table 4. The IC50 value is a concentration of the compound showing 50% cell survival rate when the cell survival rate thereof under compound untreated condition is 100%. It was calculated from the straight line connecting the cell survival rate at two points enclosing the 50% cell survival rate and the compound concentration. In addition, the tolerance (fold) was calculated by dividing the IC50 value in MDA-MB-436 w/o2 cells by the IC50 value in MDA-MB-436 cells.
Background: Tetrazolium dyes change colour on reduction, which living cells bring about.

The test system of assay [1] is human chronic myeloid leukemia K562 cell. Description: Cytotoxic action on K562 cells (WST-8, 96 hr). Format: cell-based. To be noted: K562, 96 hr. The protocol: (§1) The cytotoxic action of the compound of the present invention against human cancer cells was evaluated in vitro. In this experiment, (+)-JQ1 (Nature volume 468, pages 1067-1073 (23 Dec. 2010)) known to have an inhibitory activity on the binding of BRD4 protein and a ligand therefor was used as a positive control drug. Respective cells were suspended in 10% FBS/RPMI1640, seeded in a 96 well plate and cultured at 5% CO2, 37° C. overnight. A test compound dissolved in DMSO was diluted with 10% FBS/RPMI1640 and added and the cells were further cultured for 96 hr. After culturing, the viable cell number was measured using a cell number measurement WST-8 kit (Kishida Chemical Co., Ltd.). As a control, the measurement was performed under conditions free of the test compound. The cytotoxic activity of the compound of the present invention against human prostate cancer LNCaP cells is shown in IC50 value in Table 1. The IC50 value is a concentration of the compound showing 50% cell survival rate when the cell survival rate thereof under compound untreated condition is 100%. It was calculated from the straight line connecting the cell survival rate at two points enclosing the 50% cell survival rate and the compound concentration. […]

Assay [2] has as its system human bladder cancer 5637 cell. Description: Cytotoxic action on 5637 cells (WST-8, 96 hr). In kind it is cell-based. To be noted: 5637, 96 hr. The protocol: as §1
Assay [3] deals with human uterine sarcoma MES-SA cell. The experiment in a line: Cytotoxic action on MES-SA cells (WST-8, 96 hr). Format: cell-based. The method, then:
as §1

Assay [4] has as its system human castration-resistant prostate cancer PC-3 cell. The experiment in a line: Cytotoxic action on PC-3 cells (WST-8, 96 hr). In kind it is cell-based. To be noted: PC-3, 96 hr. The protocol: as §1
The test system of assay [5] is human prostate cancer LNCaP cells. The experiment in a line: Cytotoxic action on LNCaP cells (WST-8, 96 hr). In kind it is cell-based. To be noted: 96 hr culture. The method in brief:
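Growth-inhibition format: 96 hr continuous exposure, 37° C, 5% CO2, 10% FBS/RPMI1640, WST-8 read-out. Values are IC50 against the untreated-control survival, taken from the line joining the two points around 50%.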

For assay [6], the system named is human multiple myeloma MM.1S cell. The experiment in a line: Cytotoxic action on MM.1S cells (WST-8, 96 hr). Format: cell-based. To be noted: MM1.S. The method, then: as §1
Assay [7] has as its system human non-small cell lung cancer NCI-H2126 cell. Description: Cytotoxic action on NCI-H2126 cells (WST-8, 96 hr). Format: cell-based. To be noted: NCI-H2126, 96 hr. The method, then: as §1
Assay [8] deals with human bile duct cancer HuCCT1 cell. The experiment in a line: Cytotoxic action on HuCCT1 cells (WST-8, 96 hr). In kind it is cell-based. To be noted: HuCCT-1, HuCCT1, 96 hr. The protocol: as §1
Assay [9] deals with human pancreatic cancer BxPC-3 cell. The experiment in a line: Cytotoxic action on BxPC-3 cells (WST-8, 96 hr). In kind it is cell-based. To be noted: BxPC-3, 96 hr. The protocol: as §1
A further assay has as its target BRD4 protein (Homo sapiens (Human), UniProt O60885). The experiment in a line: BRD4 protein degradation inducing action in LNCaP cells (immunofluorescence, 6 hr). Format: cell-based. To be noted: anti-BRD4 fluorescence intensity. The method in brief: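 LNCaP cells in 10% FBS/RPMI1640 exposed to compound for 6 hr, fixed, permeabilized and immunostained for BRD4 with Alexa Fluor 546 secondary; fluorescence (ex 560, em 572 nm) read by imaging. DC50 = concentration giving 50% of untreated signal, interpolated linearly between the two bracketing points.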

By IC50 is commonly meant the point on the concentration scale where inhibition reaches its midpoint. Read a high IC50 as weaker potency in that assay. For orientation: DC50 means the concentration at which degradation of the target reaches its halfway point. Lower therefore signals a more potent degrader.

For `COC(=O)C[C@@H]1N=C(c2ccc(-c3ccc(C(=O)NCc4ccc(S(=O)(=O)Nc5ccc(C)c6c(C#N)c[nH]c56)cc4)cc3)cc2)c2c(sc(C)c2C)-n2c(C)nnc21` [Example 1, methyl [(6S)-4-{4′-[({4-[(3-cyano-4-methyl-1H-indol-7-yl)sulfamoyl]phenyl}methyl)carbamoyl][1,1′-biphenyl]-4-yl}-2,3,9-trimethyl-6H-thieno[3,2-f][1,2,4]triazolo[4,3-a][1,4]diazepin-6-yl]acetate], the IC50 in the assay with MDA-MB-436 w/o2 cells (Homo sapiens, MDA-MB-436 w/o2 cells, 96 hr) turned out to be 0.51 nM; in assay [1], 1.7 nM; in assay [2], 1.9 nM; in assay [3], 1.8 nM; in assay [4], 0.88 nM; in [5], 0.14 nM. For the same compound, the IC50 in assay [6] was 0.026 nM; in [7], 6.6 nM; in [8], 26 nM; in [9], 3.3 nM. The same compound yielded a resistance with MDA-MB-436 w/o2 cells (IC50 in MDA-MB-436 w/o2 cells divided by IC50 in MDA-MB-436 cells) of 1.3 fold. The compound also had a DC50 on BRD4 protein of 0.15 nM.

The record behind these values is patent US11890288B2, “Sulfonamide or sulfinamide compound having effect of inducing BRD4 protein degradation and pharmaceutical use thereof” (MITSUBISHI TANABE PHARMA CORPORATION, priority 2020, dated 2024).
